Structures can show the parent of a compound that is named as a salt.
Tests used:
DAT = DAT (Rattus norvegicus, UniProt P23977); assay type: in vivo; details: GBR12909 12.5 mg/kg i.p. 15 min before LBT-999 0.02 mg/kg i.v.
[1] = rat striatum, 18F-LBT-999, ref Sérrière et al. [2014]; cited from earlier work

DAT, sequence (P23977 whole entry): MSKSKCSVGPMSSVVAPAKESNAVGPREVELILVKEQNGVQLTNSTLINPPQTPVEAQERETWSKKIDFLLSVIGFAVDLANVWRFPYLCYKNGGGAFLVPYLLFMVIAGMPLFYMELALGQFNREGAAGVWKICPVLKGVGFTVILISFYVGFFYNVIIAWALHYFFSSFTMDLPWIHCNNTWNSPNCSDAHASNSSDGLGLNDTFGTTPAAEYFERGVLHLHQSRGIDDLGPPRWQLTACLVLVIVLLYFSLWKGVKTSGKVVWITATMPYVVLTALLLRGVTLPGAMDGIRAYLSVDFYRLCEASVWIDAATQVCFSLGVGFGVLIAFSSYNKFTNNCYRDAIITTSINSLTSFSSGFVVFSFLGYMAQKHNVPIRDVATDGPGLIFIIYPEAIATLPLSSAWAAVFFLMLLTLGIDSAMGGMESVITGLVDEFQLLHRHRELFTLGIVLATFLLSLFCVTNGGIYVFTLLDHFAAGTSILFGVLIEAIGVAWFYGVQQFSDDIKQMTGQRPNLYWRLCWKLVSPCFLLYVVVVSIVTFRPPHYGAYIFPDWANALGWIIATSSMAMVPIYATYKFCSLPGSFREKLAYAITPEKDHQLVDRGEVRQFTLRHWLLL

Fc1ccc(C(OCCN2CCN(CCCc3ccccc3)CC2)c2ccc(F)cc2)cc1 [GBR 12909, 1-(2-bis(4-fluorophenyl)methoxy)ethyl)-4-(3-phenylpropyl)piperazine hydrochloride]
effect on brain binding of LBT-999 (DAT): prevented any binding of LBT-999

COC(=O)[C@H]1[C@@H](c2ccc(C)cc2)C[C@@H]2CC[C@H]1N2C/C=C/C[18F] [18F-LBT-999]
average percentage of injected doses in the striatum derived from PET studies [1]: 2.17 ± 0.42%

— article PMC11349956 (EJNMMI Radiopharmacy and Chemistry, 2024)
